From PubChem BioAssay AID2060623 (Molecular Pharmacology Branch, DTP, NCI, 2025)

System: 227483-062-R1-J1-PDC complex spheroids with HUVEC/MSC, viability
Test: Anticancer human tumor 227483-062-R1-J1-PDC patient-derived pancreatic carcinoma cell line growth inhibition [CLK]
Conditions: for IC50: curve of first compound; for viability, T/C: stronger effect = lower value
Source text: A high-throughput screen of multi-cell type tumor spheroids was designed to identify active combinations of […] and targeted small molecules. Complex spheroids include a stromal component modeled by human endothelial cells (HUVEC) and fibroblasts modeled by human mesenchymal stem cells (MSCs). The concentration ranges selected for each drug and investigational agent were based upon clinically achievable concentrations if the clinical Cmax of the agent was known.
Compounds. The drugs and investigational agents: cirtuvivint (SM08502; NSC835563), CC-671 (NSC850746), vemurafenib (NSC761431), tapotoclax (NSC804041), sotorasib (NSC818433), adagrasib (NSC831453), MRTX-1133 (NSC836407), BAY2416964 (NSC825713), copanlisib (NSC816437), inavolisib (NSC800729), abemaciclib (NSC768073), osimertinib (NSC779217), entinostat (NSC756642), eltanexor (KPT-8602, NSC794443), venetoclax (NSC766270), ceralasertib (NSC777638), bortezomib (NSC756655), olaparib (NSC753686), talazoparib (NSC767125), alisertib (NSC759677), peposertib (NSC802822), gemcitabine (NSC613327), 5-fluorouracil (NSC19893), SN-38 (NSC673596), oxaliplatin (NSC266046), paclitaxel (NSC125973), and doxorubicin (NSC123127), were obtained from the National Cancer Institute (NCI) Developmental Therapeutics Program Chemical Repository. The FDA-approved anticancer drug set is available from the Developmental Therapeutics Program at https://dtp.cancer.gov/organization/dscb/obtaining/available plates.htm. […] The stock solutions were prepared in dimethyl sulfoxide (DMSO, Sigma-Aldrich, St. Louis, MO, cat. D2650), except for the platinum complexes which were prepared in saline (Quality Biological, Gaithersburg, MD, cat. 114-055-101), at 800-fold the tested concentration and stored at -70 degrees C prior to their use. All drugs and investigational agents were tested over a range starting from a high concentration at or near the clinical Cmax and decreasing in half-log increments. If the clinical Cmax for an agent had not been determined, the highest concentration tested was 10 microM.
Cell Culture. All cells were maintained in an incubator at 37 degrees C and 5% CO2 with 95% humidity. The PDC lines were cultured according to standard operating procedures established by the NCI PDMR. Briefly, all PDCs were thawed and cultured in Matrigel-coated flasks prepared with a working solution of 1X Ham's F-12 nutrient mix, without supplementation (Invitrogen, Waltham, MA, cat. 11765054), 100 U/mL penicillin-streptomycin (Invitrogen, cat. 15140122), and 2.5% Matrigel (Corning Inc., Corning, NY, cat. 354248) for the first three passages. The 947758-054-R-J2-PDC line was cultured in 6B/Colon 1A media, which includes advanced DMEM/F-12 (Thermo Fisher Scientific, cat. 12634028), 10 mM HEPES (Thermo Fisher Scientific, cat. 15630080), 1X GlutaMAX supplement (Thermo Fisher Scientific, cat. 35050061), 0.1 mg/mL primocin (InvivoGen, cat. ant-pm-2), 10% defined fetal bovine serum, heat inactivated (HyClone Laboratories Inc., cat. SH30070.03HI), 1.25 mM N-Acetyl-L-cysteine (Sigma-Aldrich, cat. A9165), 10 mM nicotinamide (Sigma-Aldrich, cat. N0636), 1X B-27 supplement (Thermo Fisher Scientific, cat. 17504044), 1X N-2 supplement (Thermo Fisher Scientific, cat. 17502048), and 10 microM Y-27632 dihydrochloride (Tocris Bioscience, cat. 1254). The 876862-298-R-J1-PDC was cultured in 6E media, which includes all 6B/Colon 1A media components plus 50% L-WRN conditioned media (ATCC, cat. CRL-3276), 50 ng/mL recombinant human EGF recombinant protein (hEGF; Thermo Fisher Scientific, cat. PHG0311), 10 ng/mL recombinant human fibroblast growth factor 10 (hGFG-10; PeproTech, cat. 100-26), 1 ng/mL recombinant human fibroblast growth factor 2 (hFGF-2; PeproTech, cat. 100-18B), and 1 µM prostaglandin E2 (PGE2; Tocris, cat. 2296). The 227483-062-R1-J1-PDC line was cultured in Panc media, containing all 6E components except hFGF-2, with the addition of 500 nM SB-431542 (Selleckchem, cat. S1067) and 10 nM gastrin (Tocris, cat. 3006). […]

[1] = second compound 0.0316 µM, first compound 0.0316 µM
[2] = second compound 0.0316 µM, first compound 0.1 µM
[3] = second compound 0.0316 µM, first compound 0.316 µM
[4] = second compound 0.0316 µM, first compound 1 µM
[5] = second compound 0.0316 µM, first compound 3.16 µM
[6] = second compound 0.0316 µM, first compound 10 µM
[7] = second compound 0.1 µM, first compound 0.0316 µM
[8] = second compound 0.1 µM, first compound 0.1 µM
[9] = second compound 0.1 µM, first compound 0.316 µM
[10] = second compound 0.1 µM, first compound 1 µM
[11] = second compound 0.1 µM, first compound 3.16 µM
[12] = second compound 0.1 µM, first compound 10 µM
[13] = second compound 0.316 µM, first compound 0.0316 µM
[14] = second compound 0.316 µM, first compound 0.1 µM
[15] = second compound 0.316 µM, first compound 0.316 µM
[16] = second compound 0.316 µM, first compound 1 µM
[17] = second compound 0.316 µM, first compound 3.16 µM
[18] = second compound 0.316 µM, first compound 10 µM
[19] = second compound 1 µM, first compound 0.0316 µM
[20] = second compound 1 µM, first compound 0.1 µM
[21] = second compound 1 µM, first compound 0.316 µM
[22] = second compound 1 µM, first compound 1 µM
[23] = second compound 1 µM, first compound 3.16 µM
[24] = second compound 1 µM, first compound 10 µM
[25] = second compound 3.16 µM, first compound 0.0316 µM
[26] = second compound 3.16 µM, first compound 0.1 µM
[27] = second compound 3.16 µM, first compound 0.316 µM
[28] = second compound 3.16 µM, first compound 1 µM
[29] = second compound 3.16 µM, first compound 3.16 µM
[30] = second compound 3.16 µM, first compound 10 µM
[31] = second compound 10 µM, first compound 0.0316 µM
[32] = second compound 10 µM, first compound 0.1 µM
[33] = second compound 10 µM, first compound 0.316 µM
[34] = second compound 10 µM, first compound 1 µM
[35] = second compound 10 µM, first compound 3.16 µM
[36] = second compound 10 µM, first compound 10 µM
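Further: spheroids exposed to compounds for seven days before readout.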
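Wherever viability, T/C is given: percent of DMSO vehicle control luminescence as 100% viability.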

C=C(F)C(=O)N1CCN(c2nc(OCC3CCCN3C)nc3c2CCN(c2cccc4cccc(Cl)c24)C3)CC1CC#N (centres undefined) + CNC(=O)c1ccc(Nc2nc(OC3CCCC3)c3c(-c4ccc5nc(C)oc5c4)c[nH]c3n2)c(OC)c1
IC50 (second compound 0.0316 µM): 5.41 µM
IC50 (second compound 0.1 µM): 5.79 µM
IC50 (second compound 0.316 µM): 5.82 µM
IC50 (second compound 1 µM): 3.78 µM
IC50 (second compound 3.16 µM): 0.169 µM
IC50 (second compound 10 µM): < 0.0316 µM
viability, T/C [1]: 116%
viability, T/C [2]: 98%
viability, T/C [3]: 117%
viability, T/C [4]: 121%
viability, T/C [5]: 83.9%
viability, T/C [6]: 11.4%
viability, T/C [7]: 113%
viability, T/C [8]: 118%
viability, T/C [9]: 93.7%
viability, T/C [10]: 103%
viability, T/C [11]: 96.5%
viability, T/C [12]: 8.35%
viability, T/C [13]: 95.9%
viability, T/C [14]: 84.2%
viability, T/C [15]: 101%
viability, T/C [16]: 102%
viability, T/C [17]: 130%
viability, T/C [18]: 3.32%
viability, T/C [19]: 79.6%
viability, T/C [20]: 57.4%
viability, T/C [21]: 67.7%
viability, T/C [22]: 69%
viability, T/C [23]: 58.8%
viability, T/C [24]: 0.65%
viability, T/C [25]: 52.3%
viability, T/C [26]: 47.2%
viability, T/C [27]: 51.9%
viability, T/C [28]: 41.6%
viability, T/C [29]: 22%
viability, T/C [30]: 0.26%
viability, T/C [31]: 42.4%
viability, T/C [32]: 43.3%
viability, T/C [33]: 40.3%
viability, T/C [34]: 29%
viability, T/C [35]: 16.1%
viability, T/C [36]: 0.39%

CC(CO)NC(=O)c1cc(-c2ccc(Cl)cc2)nn(-c2cnn(C)c2)c1=O (centres undefined) + CNC(=O)c1ccc(Nc2nc(OC3CCCC3)c3c(-c4ccc5nc(C)oc5c4)c[nH]c3n2)c(OC)c1
IC50 (second compound 0.0316 µM): > 10 µM
IC50 (second compound 0.1 µM): > 10 µM
IC50 (second compound 0.316 µM): > 10 µM
IC50 (second compound 1 µM): > 10 µM
IC50 (second compound 3.16 µM): < 0.0316 µM
IC50 (second compound 10 µM): < 0.0316 µM
viability, T/C [1]: 100%
viability, T/C [2]: 80.3%
viability, T/C [3]: 103%
viability, T/C [4]: 99.4%
viability, T/C [5]: 86.6%
viability, T/C [6]: 84.7%
viability, T/C [7]: 109%
viability, T/C [8]: 102%
viability, T/C [9]: 96.1%
viability, T/C [10]: 91.4%
viability, T/C [11]: 78.3%
viability, T/C [12]: 82.6%
viability, T/C [13]: 80.2%
viability, T/C [14]: 90.7%
viability, T/C [15]: 85.5%
viability, T/C [16]: 77.5%
viability, T/C [17]: 83.7%
viability, T/C [18]: 70.8%
viability, T/C [19]: 62.6%
viability, T/C [20]: 68.2%
viability, T/C [21]: 61.4%
viability, T/C [22]: 54.1%
viability, T/C [23]: 64.9%
viability, T/C [24]: 56.9%
viability, T/C [25]: 45.5%
viability, T/C [26]: 50.3%
viability, T/C [27]: 46%
viability, T/C [28]: 45.5%
viability, T/C [29]: 49%
viability, T/C [30]: 38.3%
viability, T/C [31]: 36.5%
viability, T/C [32]: 41.8%
viability, T/C [33]: 51.3%
viability, T/C [34]: 37.3%
viability, T/C [35]: 30.6%
viability, T/C [36]: 36%
